One substance from US20160058829A1, “ANTI-FIBROTIC PEPTIDES AND THEIR USE IN METHODS FOR TREATING DISEASES AND DISORDERS CHARACTERIZED BY FIBROSIS” (Thrasos Innovation, Inc., priority 2011, published 2016) can be followed below.

The test system of experiment [1] is Alk-3 deleted mice and littermate control mice, IRI. The experiment in a line: IRI in Alk-3 deleted (γGT-Cre; Alk3 flox/flox) and control mice. Type of experiment: in vivo. As to conditions: for renal injury (tubular necrosis), IRI: THR-123 orally 5 mg/kg/day. As to the method:
FIG. 76A-FIG. 76T THR-123 acts on tubule Alk3 as a receptor in kidney disease models. FIG. 76A-FIG. 76D, The effect of THR-123 on the IRI model kidney injury in Alk3^flox/flox and […]GTCre; Alk3^flox/flox mice. After ischemia reperfusion injury the mice were given THR-123 orally (5 mg/kg/day) till the day of sacrifice. FIG. 76A-FIG. 76C, the representative H&E staining picture of indicated group of mice are shown. FIG. 76D. Percentage renal tubular necrosis in IRI. Ten fields in each group were analyzed. Data are shown as mean±s.e.m. in the graph. FIG. 76E-FIG. 76T, The effect of THR-123 on the NTN model kidney injury in Alk3^flox/flox and gGTCre; Alk3^flox/flox mice. Six weeks after NTN was introduced in the indicated groups of mice, mice were treated with PBS or THR-123 orally. FIG. 76E-FIG. 76H, the representative MTS staining picture of indicated group of mice are shown. FIG. 76I, Morphometric analyses from 9 weeks of NTN models in indicated groups. FIG. 76J-FIG. 76N, Macrophage accumulation analysis in the kidney of NTN model in Alk3^flox/flox and gGTCre; Alk3^flox/flox mice. FIG. 76J-FIG. 76M, Mac-1 immunofluorescence study of indicated groups of mice. FIG. 76N, The number of macrophages per field of view (×400 magnification) was assessed by counting positively labeled cells in 5 random fields of view per slide, with 5 slides per experimental group. Data are shown as mean±s.e.m. in the graph. FIG. 76O-FIG. 76S, EMT analysis, FIG. 76O-FIG. 76R, E-cadherin/FSP1 immunolabeling of kidney in NTN-induced Alk3^flox/flox and GTCre; Alk3^flox/flox mice treated with either PBS or THR-123. FIG. 76S. Percent of E-cadherin/FSP1 double positive tubule. 500 tubules per slide, 5 slides per experimental group were analyzed. Data are expressed as mean±s.e.m. in the graph. FIG. 76T, Blood urea nitrogen measurement in 6 and 9 weeks of NTN in indicated groups of mice (all n=4).
Ischemia reperfusion injury (IRI) was induced by clamping of the left renal pedicle for 25 minutes. After ischemia reperfusion injury the mice were given THR-123 orally (5 mg/kg/day) or PBS till the day of sacrifice. FIG. 77A-FIG. 77C. Mac-1 immunofluorescence studies in the indicated groups. FIG. 77D. The number of macrophages per field of view (×400 magnification) was assessed by counting positively labeled cells in 5 random fields of view per slide, with 5 slides per experimental group.
Ischemia reperfusion injury (IRI) was induced by clamping of the left renal pedicle for 25 minutes. After ischemia reperfusion injury the mice were given THR-123 orally (5 mg/kg/day) or PBS till the day of sacrifice. FIG. 78A-FIG. 78C. Tubule cell apoptosis was analyzed in frozen kidney sections of indicated groups of animals by TUNEL staining. FIG. 78D. Quantification of TUNEL positive tubule cells. The number of TUNEL positive tubules per field of view (×200 magnification) was assessed by counting positively labeled cells in 5 random fields of view per slide, with 5 slides per experimental group.
THR-123 binds to Alk-3 receptor and induced actions that mimic BMP7 (vide supra). […] To functionally validate the target of THR-123 in exerting such reno-protective activity in mice, the efficacy of THR-123 in the Alk-3 deleted mice subjected to renal injury was tested (FIG. 42 K). The Alk-3 deleted mice and their littermate (control) mice were subjected to IRI.
Alk-3 flox mice are provided by Dr. Yuji Mishina, National Institutes of Health with material transfer agreements. γGT-Cre mice are provided from Dr. Eric Neilson, Vanderbilt University Medical Center. NTN is induced by the method described above.

Experiment [2] concerns human proximal tubule epithelial cells (HK2). As to the kind of experiment: Cisplatin-induced apoptosis in HK-2 cells (Annexin V). As to conditions: THR-123 250 μM, cisplatin 10 μM. Type of experiment: cell-based. The method, then:
FIG. 50A-FIG. 50D THR-123 inhibits Cisplatin-induced apoptosis in human proximal tubule epithelial cells (HK2). Immortalized human proximal tubular epithelial-derived HK-2 (Human Kidney-2) cells are passaged on 24-well plates (˜25,000 to 30,000 cells/well). The cells are exposed either K-SFM media alone or K-SFM medium containing THR-123. BMP7 serves as a positive control of experiment. Two hours after incubation, cells are exposed to cisplatin for 60 hours (FIG. 50A-FIG. 50C). FIG. 50D. Cells are exposed to cisplatin for 6 hours and subsequently THR-123 was added into the media. Apoptosis is determined by staining of AnnexinV-FITC Apoptosis detection kit (TACS Annexin V-FITC) (R&D Systems), followed by fluorescence microscopy. Final concentration: THR-123 250 μM, BMP-7 1 μg/ml, cisplatin 10 μm.
HK-2 cells are passaged on 24-well plates (25,000-30,000 cell/well). Once cells attached on the well, cells are exposed either K-SFM media alone or K-SFM medium containing THR-123. BMP7 serves as a positive control of experiment. Two hours after incubation, cells are exposed to cisplatin for 60 hours. Apoptosis is determined by staining of AnnexinV-FITC, followed by fluorescence microscopy. Final concentration: THR-123 250 μM, BMP7 1 μg/ml, cisplatin 10 μM.

Experiment [3] relates to mice with ischemia reperfusion injury. As to the kind of experiment: Ischemia reperfusion injury (IRI) in mice. The experiment is classed as in vivo. As to the method: FIG. 55A-FIG. 55D The effect of THR-123 on acute tubular damage induced by ischemia reperfusion injury. Ischemia reperfusion injury (IRI) was induced by the clamping of the left renal pedicle for 25 minutes. After ischemia reperfusion injury the mice were given THR-123 orally (5 mg/kg/day) or PBS till the day of sacrifice. […] Arrows indicate necrotic tubules. FIG. 55B. […] FIG. 55C. […] Ten fields in each group were analyzed. FIG. 55D. Blood urea nitrogen estimated by quantichrome colorimetric urea assay at day 7 IRI. No difference in the all groups. PBS group (n=5) and THR-123-treated group (n=4) are analyzed. Data are shown as mean±s.e.m. in the graph.
7B16 mice are used in this study. Mice are anesthetized with the mixture of ketamine and xylazine and the left renal pedicle clamped for 25 minutes. At same day after surgery, THR-123 (p.o. 5 mg/Kg/day) or vehicle treatments are started. At 7 days after surgery, mice are sacrificed.

Experiment [4] relates to BALB/c mice with bleomycin-induced lung fibrosis. The experiment in a line: Bleomycin (plus cyclophosphamide)-induced pulmonary fibrosis in BALB/c mice.
Description: The endpoints in this model are survival and histomorphometric evaluation of the extent of fibrosis in lung tissue.
The test compound, in lyophilized form, is dissolved in 50 mM acetate buffer, pH 4.5 at an initial concentration of 20 mg/mL. The stock solution is then divided into several one mL aliquots, snap frozen and stored at −70° C. until used. On the Day of use, each aliquot is thawed and further diluted to a required working concentration in PBS, pH 7.5. The working concentration is determined from the intended dose (mg/kg body weight) and the oral administration volume.
In addition, the mice are administered a single intraperitoneal injection of cyclophosphamide (150 mg/kg of body weight). The animals challenged with Bleomycin plus Cyclophosphamide are separated into two groups, each group having a minimum of 6 animals. The vehicle treated group (Group 1) receives daily oral doses of PBS, pH 7.5. […] These treatments are continued for up to 16 days after Bleomycin administration. A third control group of mice receive intra-tracheal PBS rather than Bleomycine and Cyclophosphamide.
After completion of the in-life study, the animals are euthanized (methoxyflurane anesthesia), and the lungs are perfused with ice cold Hank's balanced salt solution to remove blood-born cells, and then inflated under a constant pressure of 30 cm H2O with 10% normal buffered formalin (NBF). Lungs are ligated at the trachea, removed en bloc, and immersed in NBF for 24 hr. After which, tissue samples are changed to 70% alcohol before paraffin embedding, followed by sectioning and staining with hematoxylin, eosin and Masson's Trichrome. Sections are analyzed microscopically to evaluate pulmonary fibrosis by determining the degree of collagen accumulation (Masson's Trichrome).
Pulmonary fibrosis was evaluated histomorphometricly by determining the percentage of field with collagen accumulation lung sections stained with Masson's Trichrome.

Positions of bridges follow the written chain, without caps; N, C: chain ends.

Take “(H)-CYFDDSSNVLCKKYRS-(OH) (H-CYFDDSSNVLCKKYRS-OH; disulfide 1-11; SMILES CC(C)C[C@@H]1NC(=O)[C@H](C(C)C)NC(=O)[C@H](CC(N)=O)NC(=O)[C@H](CO)NC(=O)[C@H](CO)NC(=O)[C@H](CC(=O)O)NC(=O)[C@H](CC(=O)O)NC(=O)[C@H](Cc2ccccc2)NC(=O)[C@H](Cc2ccc(O)cc2)NC(=O)[C@@H](N)CSSC[C@@H](C(=O)N[C@@H](CCCCN)C(=O)N[C@@H](CCCCN)C(=O)N[C@@H](Cc2ccc(O)cc2)C(=O)N[C@@H](CCCNC(=N)N)C(=O)N[C@@H](CO)C(=O)O)NC1=O) [SEQ ID NO: 1]”: in experiment [1] (Alk-3 deleted mice), the “macrophage accumulation, IRI” value is given as “does not inhibit macrophage accumulation”; the “tubular apoptosis, IRI” value was “does not inhibit apoptosis”; the “renal injury (tubular necrosis), IRI” value is listed as “does not exhibit therapeutic effect”. In experiment [1] (control mice), the “macrophage accumulation, IRI” value is listed as “reduction in macrophage accumulation”; the “tubular apoptosis, IRI” value is recorded as “decreased tubular apoptosis”; the “renal injury (tubular necrosis), IRI” value is “inhibited renal injury”. For the same substance, the cisplatin induced apoptosis entry in experiment [2] was “inhibited”. In experiment [3] (THR-123 orally 5 mg/kg/day versus PBS), the “blood urea nitrogen at day 7 IRI” value is “No difference”. For the same substance, in experiment [3] (THR-123 orally 5 mg/kg/day, versus PBS, day 7), the “renal tubular necrosis / tubular damage” value is listed as “significantly less tubular damage”. The “pulmonary fibrosis (histomorphometric analysis of lung tissue)” value in experiment [4] (daily oral dose of 5 mg/kg) is “significantly less pulmonary fibrosis”. For the same substance, the “survival rate at 16 days” value in experiment [4] (daily oral dose of 5 mg/kg, vehicle 100% mortality by 8 days) stood at 80%. In addition, the “lung fibrosis score (percentage of field with collagen accumulation, Masson's Trichrome)” value in experiment [4] (day 16, oral, vehicle 31% at ten days) amounted to 16%. Moreover, the “survival by day 16” value in experiment [4] (oral) is “survival of all mice”.
